The values below come from PubChem BioAssay AID1549 (Sanford-Burnham Center for Chemical Genomics, 2009).

Molecules are shown by their SMILES. Activity calls are given as the source filed them. No rule for the calls is given here.

In general, Kd refers to the concentration at which binding is half-saturated.

The assay deals with Influenza A virus M2 proton channel (A/TW/4845/1999 H1N1). The assay is described as follows: NMR binding screen, influenza A virus M2 proton channel, Kd (AID 1549). The note with it: M2 protein.
With `Cc1ccc(S(=O)(=O)CCc2ccccn2)cc1`, the Kd is > 4 mM (inactive). Then `Cn1c(=O)c2[nH]cnc2n(-c2ccccc2)c1=O`, with > 4 mM (inactive).

On to `COc1ccc2c(c1)c1n[nH]c(=S)nc1n2C`, for which the Kd was > 4 mM (inactive). `O=C(C1CCCCC1)N1CCN(c2ccccc2F)CC1`: the Kd is > 4 mM (inactive). Then `COc1cc(-c2nnc(NC(C)=O)o2)cc(OC)c1OC`, with > 4 mM (inactive); and `Nc1nnc(SCc2ccc(F)cc2Cl)s1`, with > 4 mM (inactive). On to `CCOC(=O)N1CCCC1c1cccnc1` (configuration not stated), for which the Kd is > 4 mM (inactive). The result for `Nc1nc2ccc(C(=O)O)cc2s1` reads > 4 mM (inactive); that for `O=c1c(O)c(-c2ccccc2)oc2ccc3occc3c12`, > 4 mM (inactive); that for `CN(C)c1ccc(/C=C2/NC(=S)NC2=O)cc1`, > 4 mM (inactive). The result for `c1ccc(-n2ncc3c(NCc4ccco4)ncnc32)cc1` reads > 4 mM (inactive). Consider `CCOCC(=O)NCc1n[nH]c(=O)c2ccccc12`, for which the Kd is > 4 mM (inactive).

Take `Cc1ccc(C(=O)Nn2cnnc2)s1`: the Kd was > 4 mM (inactive). Consider `O=C(O)C1CCCN1Cc1c[nH]c2ccccc12` (configuration not stated), for which the Kd was > 4 mM (inactive). The result for `O=C(NCCO)NC(=S)c1ccccc1` reads > 4 mM (inactive); that for `O=C1CCCc2c(O)cccc21`, > 4 mM (inactive). The result for `Cc1cc([N+](=O)[O-])cc[n+]1[O-]` reads > 4 mM (inactive). Then `Nc1ccccc1-n1cccn1`, with > 4 mM (inactive); and `Cc1ccc(CN2CCNC(=O)C2CC(=O)O)o1` (configuration not stated), with > 4 mM (inactive); and `CCOc1nc(C)ccc1-c1noc(-c2ccco2)n1`, with > 4 mM (inactive). In the case of `Nc1cccc(S(N)(=O)=O)c1`, the Kd was > 4 mM (inactive).

On to `CC(C)c1ccc2c(c1O)CC[C@H]1C3=C(CC[C@]21C)C(=O)OC3`, for which the Kd is > 4 mM (inactive).

As to `O=C1C2C3CCC(O3)C2C(=O)N1c1ccccc1` (configuration not stated), the Kd was > 4 mM (inactive). Then `O=c1c2ccccc2nc2n1CCC2O` (configuration not stated), with > 4 mM (inactive); and `CNC(=O)C1CCCN(S(C)(=O)=O)C1` (configuration not stated), with > 4 mM (inactive). On to `C=C[C@H]1CN2CC[C@H]1C[C@@H]2[C@H](O)c1ccnc2ccccc12`, for which the Kd was > 4 mM (inactive). Turning to `N[C@@H](C(=O)O)[C@@H](O)[C@H](O)[C@H](O)CO`, the Kd is > 4 mM (inactive). In the case of `COC(=O)C[C@H]1C2(C)CC34OC5(C)O[C@@]6([C@H](OC(C)=O)C(OC(C)=O)[C@]7(C)C(/C(=C(/O)C(C)C)C(=O)O[C@H]7c7ccoc7)[C@@]6(O5)[C@H](OC(C)=O)[C@@]3(O)C2OC(=O)C(C)C)[C@]14C` (some centres not stated), the Kd was > 4 mM (inactive). For `CC1(C)C2CC[C@]3(C)C(C(=O)C=C4[C@H]5C[C@@](C)(C(=O)O)CC[C@]5(C)CC[C@]43C)[C@@]2(C)CC[C@@H]1O` (some centres not stated), the Kd is > 4 mM (inactive). With `N=Cc1c(O)n(-c2cccc(Cl)c2)c(=O)[nH]c1=O`, the Kd is > 4 mM (inactive).

For `CC(=O)O[C@H]1CC[C@]2(C)C3CC[C@@]4(C)C(CC5O[C@@]6(CCC(C)CO6)[C@@H](C)C54)C3CC[C@@H]2C1` (some centres not stated), the Kd was > 4 mM (inactive). In the case of `Cc1cc(C)n2c(SCc3c(C)noc3C)nnc2n1`, the Kd is > 4 mM (inactive). `Cc1oc2nc3c(c(=O)[nH]c(=O)n3C)n2c1C`: the Kd was > 4 mM (inactive). Then `O=C(O)c1ccc(-n2cccc2)cc1`, with > 4 mM (inactive). Then `c1ccc(CCc2nc(-c3ccccn3)no2)cc1`, with > 4 mM (inactive). The result for `CC(=O)c1cc(C)ccc1O` reads > 4 mM (inactive); that for `Cn1cc(Cl)c(C(=O)Nc2ccncc2)n1`, > 4 mM (inactive); that for `Nc1ccc(Cc2ccncc2)cc1`, > 4 mM (inactive). `COc1ccc(C)cc1-n1c(-c2ccncc2)n[nH]c1=S`: the Kd is > 4 mM (inactive).

With `O=C(O)Cc1c[nH]c2ccccc12`, the Kd is > 4 mM (inactive). Then `Cc1ccccc1N1CCN(C(=O)C2CCCCC2)CC1`, with > 4 mM (inactive); and `CSc1nnc2ccc(-c3cccnc3)nn12`, with > 4 mM (inactive). Then `CSc1ccccc1NC(=O)c1cccnc1`, with > 4 mM (inactive); and `Cc1cccc(NS(=O)(=O)c2cccs2)n1`, with > 4 mM (inactive); and `c1ccc(Cn2cccc2)nc1`, with > 4 mM (inactive).

In the case of `Cc1noc(C)c1C(=O)N1CCC(Cc2ccccc2)CC1`, the Kd is > 4 mM (inactive). In the case of `CC(=O)N1CCN(S(=O)(=O)c2ccccc2)CC1`, the Kd was > 4 mM (inactive). For `Cc1cccc(N2C(=O)CC(=O)NC2=O)c1`, the Kd is > 4 mM (inactive). As for `NC(=O)CSc1nc2ccccc2o1`, the Kd is > 4 mM (inactive). The result for `O=C1CSC(=Nc2ccc(F)cc2)N1` reads > 4 mM (inactive). `CC(=O)O[C@]1(C)CC[C@@]23CC1C(C)(C)[C@@H]2CC[C@H]3C`: the Kd was > 4 mM (inactive). Then `CCC(C)C(NC)C(=O)O` (configuration not stated), with > 4 mM (inactive).

As for `O=C1CCC(=O)N1c1cccnc1`, the Kd was > 4 mM (inactive). The result for `N=c1c2c3c(sc2ncn1N)CCCC3` reads > 4 mM (inactive); that for `O=C(O)C1CCN(c2ccc(C(F)(F)F)cn2)CC1`, > 4 mM (inactive).

As to `O=C1C=C(Nc2ccc(O)cc2)c2ccccc2C1=O`, the Kd is > 4 mM (inactive). As for `C=C1C[C@]23C[C@@]1(O)CC[C@H]2[C@@]12C=C[C@H](O)C(C)(C(=O)O1)[C@H]2[C@@H]3C(=O)O`, the Kd is > 4 mM (inactive). For `CC1(C)C2CC[C@]3(C)C(C(=O)C=C4[C@@H]5C[C@@](C)(C(=O)O)CC[C@]5(C)CC[C@]43C)[C@@]2(C)CC[C@@H]1O` (some centres not stated), the Kd was > 4 mM (inactive).

Turning to `O=C(O)/C=C/c1ccc(O)c(O)c1`, the Kd was > 4 mM (inactive).

For the compound `CC12OC(=O)CC3C(C)(C)[C@H](O)C=C[C@]3(C)C1CC[C@]1(C)C2=CC(=O)O[C@H]1c1ccoc1` (some centres not stated), the Kd is > 4 mM (inactive).

`COc1c(O)cc2c(c1O)[C@H]1O[C@H](CO)[C@@H](O)[C@H](O)[C@@H]1OC2=O`: the Kd is > 4 mM (inactive). The result for `NCc1cc2ccccc2s1` reads > 4 mM (inactive); that for `NS(=O)(=O)c1ccc(N=Cc2ccc[nH]2)cc1`, > 4 mM (inactive).

Take `O=c1ccn(Cc2ccccc2)c(=O)n1Cc1ccccc1`: the Kd is > 4 mM (inactive). With `COc1ccc(C(O)c2nccn2C)cc1` (configuration not stated), the Kd is > 4 mM (inactive). Then `O/N=C1/CCCc2nonc21`, with > 4 mM (inactive). For the compound `Cc1nc2ccc(C(=O)O)cc2nc1C`, the Kd is > 4 mM (inactive).

Regarding `NCc1ccc(-c2csnn2)cc1`, the Kd is > 4 mM (inactive). The result for `Cc1cc(C(=O)N2CCCCCC2)cs1` reads > 4 mM (inactive). Then `S=C(NCC1CCCO1)NC1CC1` (configuration not stated), with > 4 mM (inactive). `O=C(Cc1cccs1)Nc1nncs1`: the Kd is > 4 mM (inactive). For the compound `COc1ccc2nc(SCC(N)=O)[nH]c2c1`, the Kd was > 4 mM (inactive).
